Source: patent US7772180B2, “Hepatitis C virus inhibitors” (Bristol-Myers Squibb Company, priority 2006, dated 2010)

Legend:
Format in all cases: biochemical
[1] = target: T1, porcine pancreatic elastase (PPE) (Sus scrofa, UniProt P00772); test: Specificity assay, porcine pancreatic elastase; conditions: read-out: PPE activity in the specificity assays (IC50)
T1 construct: purchased Sigma, EMDbiosciences
Experimental: (§1) The specificities of compounds of the present disclosure were determined against a variety of serine proteases: human neutrophil elastase (HNE), porcine pancreatic elastase (PPE) and human pancreatic chymotrypsin and one cysteine protease: human liver cathepsin B. In all cases a 96-well plate format protocol using either colorimetric p-nitroaniline (pNA) substrate or fluorometric Amino-Methyl-Coumarin (AMC) specific for each enzyme was used as described previously (PCT Patent Application No. WO 00/09543) with some modifications to the serine protease assays. All enzymes were purchased from Sigma, EMDbiosciences while the substrates were from Bachem, Sigma and EMDbiosciences.
(§2) The pNA assay for Chymotrypsin included a 1 h enzyme-inhibitor pre-incubation at room temperature followed by addition of substrate and hydrolysis to ˜15% conversion as measured on a Spectramax Pro microplate reader. Compound concentrations varied from 100 to 0.4 μM depending on their potency. Cathepsin B, HNE, and PPE assays each was initiated by addition of substrate to enzyme-inhibitor pre-incubated for 10 min at room temperature and hydrolysis to 15% conversion as measured on cytofluor.
50 mM Tris-HCl, pH 8.0, 50 mM NaCl, 0.1 mM EDTA, 3% DMSO, 0.02% Tween-20, 5 μM succ-AAPV-AMC and 20 nM HNE or 8 nM PPE;
(§3) The percentage of inhibition was calculated using the formula: [1−((UVinh−UVblank)/(UVctl−UVblank))]×100 […]

human liver cathepsin B = target: T2, human liver cathepsin B (Homo sapiens, UniProt P07858); test: Specificity assay, cathepsin B; conditions: read-out: Cathepsin B activity in the specificity assays (IC50)
T2 construct: purchased Sigma, EMDbiosciences; host or cells: human liver
Experimental: as §1
as §2, with “cytofluor. […]” for “cytofluor.”
as §3

[2] = target: T3, HCV NS3/4A protease complex, H77 strain (Hepatitis C virus genotype 1a, UniProt P27958, C1454S/C1711G); test: FRET peptide assay to monitor HCV NS3/4A proteolytic activity (H77 strain); conditions: read-out: IC50 against the NS3/4A H77 strain
T3 construct: DNA encoding the recombinant HCV NS3/4A protease complex (amino acids 1027 to 1711) for these strains; made in house; host or cells: Escherichia coli BL21 (DE3), pET21b
Excerpt: HCV NS3 protease complexes, derived from the BMS strain, H77 strain or J4L6S strain, were generated, as described below. These purified recombinant proteins were generated for use in a homogeneous assay (see below) to provide an indication of how effective compounds of the present disclosure would be in inhibiting HCV NS3 proteolytic activity.
Serum from an HCV-infected patient was obtained from Dr. T. Wright, San Francisco Hospital. An engineered full-length cDNA (compliment deoxyribonucleic acid) template of the HCV genome (BMS strain) was constructed from DNA fragments obtained by reverse transcription-PCR (RT-PCR) of serum RNA (ribonucleic acid) and using primers selected on the basis of homology between other genotype 1a strains. From the determination of the entire genome sequence, a genotype 1a was assigned to the HCV isolate according to the classification of Simmonds et al. (See P Simmonds, K A Rose, S Graham, S W Chan, F McOmish, B C Dow, E A Follett, P L Yap and H Marsden, J. Clin. Microbiol., 31(6), 1493-1503 (1993)). […]

T1 sequence (P00772 27-266): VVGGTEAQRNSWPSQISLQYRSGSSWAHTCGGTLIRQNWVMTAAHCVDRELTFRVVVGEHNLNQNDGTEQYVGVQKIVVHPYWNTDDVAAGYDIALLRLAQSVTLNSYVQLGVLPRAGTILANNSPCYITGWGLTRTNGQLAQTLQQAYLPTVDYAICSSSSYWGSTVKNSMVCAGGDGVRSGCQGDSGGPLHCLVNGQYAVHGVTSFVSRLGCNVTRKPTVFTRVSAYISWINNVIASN
T3 sequence (P27958 1027-1711 C1454S/C1711G, one chain of several): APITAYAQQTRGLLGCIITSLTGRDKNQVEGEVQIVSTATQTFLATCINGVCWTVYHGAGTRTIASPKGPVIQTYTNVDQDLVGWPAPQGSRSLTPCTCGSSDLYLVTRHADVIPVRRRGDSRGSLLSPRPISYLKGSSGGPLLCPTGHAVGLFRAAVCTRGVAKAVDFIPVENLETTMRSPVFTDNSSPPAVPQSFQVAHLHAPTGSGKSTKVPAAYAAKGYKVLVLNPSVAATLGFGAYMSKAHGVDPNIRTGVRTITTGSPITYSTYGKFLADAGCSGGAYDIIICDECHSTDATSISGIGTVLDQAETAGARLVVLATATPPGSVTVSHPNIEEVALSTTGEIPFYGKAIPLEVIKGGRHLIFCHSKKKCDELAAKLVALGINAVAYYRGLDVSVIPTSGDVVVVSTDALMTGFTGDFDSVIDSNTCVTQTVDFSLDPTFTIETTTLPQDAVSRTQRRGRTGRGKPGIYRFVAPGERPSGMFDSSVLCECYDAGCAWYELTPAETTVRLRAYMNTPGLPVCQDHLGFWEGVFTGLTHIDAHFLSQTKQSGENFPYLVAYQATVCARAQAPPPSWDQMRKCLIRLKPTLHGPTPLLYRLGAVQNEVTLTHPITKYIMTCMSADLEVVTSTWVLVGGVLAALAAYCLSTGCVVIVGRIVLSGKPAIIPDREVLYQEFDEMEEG

In the case of C=C[C@@H]1C[C@]1(NC(=O)[C@@H]1C[C@@H](Oc2nc(N(C)C)cc3cc(OC)ccc23)CN1C(=O)C(Nc1cc(C)cc(C)n1)C(C)(C)C)C(=O)NS(=O)(=O)C1CC1 (single isomer, unassigned) [Compound 18], the IC50 [1] is reported as > 1560 nM, the IC50 (human liver cathepsin B) is reported as > 50000 nM and the IC50 [2] is reported as 1.2 nM.
